What was measured:
C6 glioma cells = experiment: Ability to promote increase of nerve growth factor (NGF) in C6 glioma cells, ELISA; format: cell-based, Rat; details: 10 μM, 24 hours, FIG. 9
Protocol: In order to measure the amount of nerve growth factor (NGF) produced in the cell medium and to confirm the effect on cell viability when cells were treated with the compounds of the present invention, the following experiments were performed.
Rat astrocyte-derived C6 glioma cells were dispensed in DMEM culture solution at a concentration of 1×10^5 cells/well in a 24 well plate and stabilized overnight, and then treated with the compounds of Formulas 3, 6, 7, and 8 at a concentration of 10 μM, and reacted in a 37° C. incubator for 24 hours. The treated medium was collected and centrifuged, and then absorbance was measured using an enzyme linked immunoassay kit (ELISA kit).

BV2 cells (microglia) = experiment: NO production in LPS-stimulated BV2 cells (Griess reaction), antineuritic activity; format: cell-based; details: 10 NM, 100 ng/ml LPS for 24 hours, FIG. 13
Protocol: In order to confirm the change in NO production and the effect on cell viability when BV2 cells were treated with the compounds of the present invention, the following experiments were performed. L-NMMA (NG-monomethyl-L-arginine), an NO synthesis inhibitor, was used as a positive control group.
Analysis of NO production for evaluation of antineuritic activity BV2 cells (microglia) were dispensed in DMEM culture solution at a concentration of 6×10^4 cells/well in a 96 well plate, and then treated with the compounds of Formulas 6, 7, and 8 at a concentration of 10 NM, and incubated for 24 hours. After 24 hours, each sample was treated with a concentration of 10 NM, reacted for 1 hour, and then stimulated with 100 ng/ml of LPS for 24 hours. The production of nitrite, a soluble oxidation product of NO (nitric oxide), was measured in the culture medium through the Griess reaction.

Row | Structure (SMILES) | nerve growth factor produced in the cell medium (C6 glioma cells) | NO production (nitrite) compared to untreated control group (BV2 cells (microglia))
1 | C=CCc1c(O)cc(OC)c2c1C(=O)N(CCc1ccccc1)C2 [Formula 3, 7-allyl-6-hydroxy-4-methoxy-2-phenethyl isoindolin-1-one] | significantly excellent | –
2 | COc1cc(O)c(CCO)c2c1CN(CCc1ccccc1)C2=O [Formula 6, 6-hydroxy-7-(2-hydroxyethyl)-4-methoxy-2-phenethyl isoindolin-1-one] | – | reduced
3 | COc1cc(O)c(CCN(C)C)c2c1CN(CCc1ccccc1)C2=O [Formula 7, 7-(2-(dimethylamino)ethyl)-6-hydroxy-4-methoxy-2-phenethyl isoindolin-1-one] | significantly excellent | reduced
4 | COc1cc(O)c(CCCO)c2c1CN(CCc1ccccc1)C2=O [Formula 8, 6-hydroxy-7-(3-hydroxypropyl)-4-methoxy-2-phenethyl isoindolin-1-one] | – | reduced

Reference: patent US12703686B2, “4-Methoxy-2-phenethyl isoindoline-1-one derivative and composition for treating neurological diseases, comprising same” (CNG BIO CO., LTD., priority 2020, dated 2026)
